Experimental data taken from article PMC3485312, “A Phage Display Selected 7-mer Peptide Inhibitor of the Tannerella forsythia Metalloprotease-Like Enzyme Karilysin can be Truncated to Ser-Trp-Phe-Pro” (PLoS ONE, 2012).
Residues, ends and D or L forms follow the SMILES beside them.

Assays:
[1] = biological target: T1, Kly18 (Karilysin catalytic domain) (Tannerella forsythia, UniProt D0EM77); details: cited from earlier work
T1 construct: Karilysin catalytic domain (Kly18) and intact Kly48 were produced as previously described; made in house
Text: The development of MMP inhibitors is highly relevant, due to the involvement of MMPs in several pathologies. Some candidate molecules act by blocking the MMP-active sites via binding to the catalytic Zn^2+ through chelators such as hydroxamate. These approaches have been successful for MMP inhibition. However, the inhibitors have a broad specificity towards other MMPs due to very similar active site geometries of matrix metalloproteinases. An alternative approach to specific MMP inhibitor design is to utilize larger molecules, such as peptides, that interact with the activ ...

[2] = biological target: T1, Kly18 (Karilysin catalytic domain); assay: biochemical; details: for Kly18 inhibitory activity, single concentration screen: 87 µM peptide
Protocol: (§1) Kly18 and Kly48 protease activities were monitored essentially as described. One hundred µl working volumes were used in black untreated polypropylene microtitre plates and FITC-casein was used as the substrate. Assays were performed at 37°C using 500 nM of Kly18 (or Kly48) in assay buffer (100 mM Tris-HCl, 5mM CaCl2, pH 8.0), at a FITC-casein concentration of 25 µg/ml. […] Peptides were dissolved in Milli Q water and added in varying molarities. The assay setup was as follows; Kly18 (or Kly48) was diluted in assay buffer together with peptide, followed by 30 minutes incubation on a vertical shaker at 22°C. Then FITC-casein was added and fluorescence formation was monitored at 37°C for 90 minutes with measurements every ten minutes.

Karilysin (Kly48) = biological target: T2, Karilysin (Kly48) (Tannerella forsythia, UniProt D0EM77); assay: Auto-processing of Kly48 monitored by SDS-PAGE; assay type: biochemical; details: Kly48 13 µM, peptide 455 µM, 37°C, 50 mM Tris-HCl, 2.5 mM CaCl2, pH 8.0, up to 48 hours
T2 construct: made in house
Protocol: Karilysin (Kly48) at 13 µM was incubated at 37°C in 50 mM Tris-HCl, 2.5 mM CaCl2, 0.02% NaN3 pH 8.0 alone or in the presence of the peptide SWFPL at 455 µM. At different time points samples were withdrawn and the Kly48 autocatalytic processing was monitored by SDS-PAGE using 10% gels and the Tris-HCl/Tricine buffer system. Gels were stained with 0.1% Coomassie Brilliant Blue R-250 in 10% acetic acid followed by destaining. Samples were run alongside a Low Molecular Weight SDS-PAGE Marker.

intact Karilysin (Kly48) = biological target: T3, intact Karilysin (Kly48) (Tannerella forsythia, UniProt D0EM77); assay: Kly48 protease activity assay with FITC-casein substrate; assay type: biochemical; details: 500 nM Kly48, FITC-casein, peptide 2.3 µM to 55.6 µM; three experiments
T3 construct: made in house
Protocol: as §1

T1 sequence (D0EM77 35-195): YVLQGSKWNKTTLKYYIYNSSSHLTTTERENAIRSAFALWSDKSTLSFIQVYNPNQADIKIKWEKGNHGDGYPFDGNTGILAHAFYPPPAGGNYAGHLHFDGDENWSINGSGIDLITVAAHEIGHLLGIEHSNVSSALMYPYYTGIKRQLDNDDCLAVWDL
T2 sequence (D0EM77 35-472): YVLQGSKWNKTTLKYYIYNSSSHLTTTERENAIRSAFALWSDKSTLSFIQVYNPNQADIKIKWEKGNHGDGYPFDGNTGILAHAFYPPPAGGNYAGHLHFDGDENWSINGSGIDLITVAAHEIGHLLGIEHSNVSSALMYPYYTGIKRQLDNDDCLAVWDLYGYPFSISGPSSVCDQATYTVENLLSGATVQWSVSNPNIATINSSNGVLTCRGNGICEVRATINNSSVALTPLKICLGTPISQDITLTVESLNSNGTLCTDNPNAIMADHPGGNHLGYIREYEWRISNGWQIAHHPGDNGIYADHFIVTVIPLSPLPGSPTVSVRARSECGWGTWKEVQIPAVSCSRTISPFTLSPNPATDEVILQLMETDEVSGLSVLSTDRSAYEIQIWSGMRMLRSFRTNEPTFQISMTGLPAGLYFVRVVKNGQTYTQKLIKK
T3 sequence (D0EM77 35-472): as above

For `c1cnc2c(c1)ccc1cccnc12` [1,10-phenanthroline], the “Inhibition of Kly18 by small molecule chelators” value [1] is given as “inhibited”.

For `NC(=O)[C@@H]1CCCN1C(=O)[C@H](Cc1ccccc1)NC(=O)[C@H](Cc1c[nH]c2ccccc12)NC(=O)[C@@H](N)CO` [15-7, (NH2)-SWFP-(CONH2)] (H-SWFP-NH2), the Ki [2] was 10.7 ± 2.25 µM and the “Kly18 inhibitory activity, single concentration screen” value (from here on “Kly18 inhibitory activity”) ([2]; FITC-casein substrate) was “retained efficient inhibitory potency”.

For `O=C(O)CN(CCN(CC(=O)O)CC(=O)O)CC(=O)O` [EDTA], the “Inhibition of Kly18 by small molecule chelators” value [1] is given as “inhibited”.

In the case of (NH2)-WFP-(CONH2) [15-8], the “Kly18 inhibitory activity” value ([2]; FITC-casein substrate) is reported as “lost most or all of their Kly18 inhibition capacity” and the “Kly18 inhibitory activity” value ([2]; FITC-casein substrate, listed as (NH2)-WFP-(CONH2)) is reported as “completely inactive”.

In the case of (NH2)-WFPL-(CONH2) [15-15], the “Kly18 inhibitory activity” value ([2]; FITC-casein substrate) is reported as “lost most or all of their Kly18 inhibition capacity”.

For (NH2)-WFPLR-(CONH2) [15-14], the “Kly18 inhibitory activity” value ([2]; FITC-casein substrate) was “lost most or all of their Kly18 inhibition capacity”.

For “H-SAAALRSGGGS-NH2 [control peptide, control peptide with the WFP motif replaced by a triple alanine, reference compound]”, the “Kly18 inhibition at very high dose” value ([2]; 174 µM peptide, FITC-casein substrate, two experiments) was “curve similar to that of Kly18 with no peptide present”.

For H-SWAPLRSGGGS-NH2 [15-16], the “Kly18 inhibitory activity” value ([2]; FITC-casein substrate) was “inactive”.

In the case of H-SWFPL-NH2 [15-6, (NH2)-SWFPL-(CONH2)], the “Effect on Kly48 auto-processing to Kly38 and Kly18” value (Karilysin (Kly48)) is reported as “inhibited the auto-processesing efficiently”, the “Inhibition of Kly48 proteolytic activity (dose-response)” value (intact Karilysin (Kly48)) is reported as “clear dose-response inhibition” and the Ki [2] is reported as 8.36 ± 2.34 µM.

“H-SWFPLR-NH2 [15-5, (NH2)-SWFPLR-(CONH2)]” showed a Ki [2] of 6.52 ± 0.88 µM.

With H-SWFPLRSGGGS-NH2 [15-0] the Ki [2] was 5.34 ± 0.51 µM.

In the case of H-WFPLRS-NH2 [15-13], the “Kly18 inhibitory activity” value ([2]; FITC-casein substrate) is reported as “lost most or all of their Kly18 inhibition capacity”.

For H-WFPLRSG-NH2 [15-12], the “Kly18 inhibitory activity” value ([2]; FITC-casein substrate) was “lost most or all of their Kly18 inhibition capacity”.

For H-WFPLRSGG-NH2 [15-11], the “Kly18 inhibitory activity” value ([2]; FITC-casein substrate) was “lost most or all of their Kly18 inhibition capacity”.

With H-WFPLRSGGG-NH2 [15-10] the “Kly18 inhibitory activity” value ([2]; FITC-casein substrate) was “lost most or all of their Kly18 inhibition capacity”.
